One data set relates to serum uric acid (sUA). In words: Phase 2a cross-over study in adults with gout, serum uric acid. The format is in vivo, human. Conditions: for patients with sUA levels below 5 mg/dL / patients with sUA levels below 6 mg/dL: gout patients (sUA>7 mg/dL), alone or combined; for mean sUA level reached at maximum: mean baseline 8.9 mg/dL.
For data set [1], the system named is urine albumin-to-creatinine ratio (UACR). In words: Phase 2a study, UACR in a subject with albuminuria. The data set is classed as in vivo, human. Conditions: one subject with albuminuria, baseline 96 mg/g; sequential 7-day periods: Compound 1 50 mg (Day 7), Compound 1 50 mg/allopurinol 300 mg (Day 14), allopurinol 300 mg (Day 21). From the text: Urine samples were collected for assessment of uric acid excretion. Laboratory safety tests, vital signs, and electrocardiograms were collected throughout the study.

Data set [2] is described as follows: Solubility of test articles in HBSS assay buffer. Conditions: all tested concentrations, highest 10 μM.
Procedure: Before the experiment, the medium was removed and the cells were washed twice with 100 μL of HBSS without Cl^−. Uptake experiments were carried out at 37±1° C. in 50 μL of HBSS without Cl^−, pH 7.4 containing the probe substrate (20 μM uric acid) and the test article (TA) or solvent.
Data set [3] deals with T1, human URAT1 uptake transporter (Homo sapiens, UniProt Q96S37).
T1 construct: expressed in transfected cells
T1 sequence (Q96S37 1-553): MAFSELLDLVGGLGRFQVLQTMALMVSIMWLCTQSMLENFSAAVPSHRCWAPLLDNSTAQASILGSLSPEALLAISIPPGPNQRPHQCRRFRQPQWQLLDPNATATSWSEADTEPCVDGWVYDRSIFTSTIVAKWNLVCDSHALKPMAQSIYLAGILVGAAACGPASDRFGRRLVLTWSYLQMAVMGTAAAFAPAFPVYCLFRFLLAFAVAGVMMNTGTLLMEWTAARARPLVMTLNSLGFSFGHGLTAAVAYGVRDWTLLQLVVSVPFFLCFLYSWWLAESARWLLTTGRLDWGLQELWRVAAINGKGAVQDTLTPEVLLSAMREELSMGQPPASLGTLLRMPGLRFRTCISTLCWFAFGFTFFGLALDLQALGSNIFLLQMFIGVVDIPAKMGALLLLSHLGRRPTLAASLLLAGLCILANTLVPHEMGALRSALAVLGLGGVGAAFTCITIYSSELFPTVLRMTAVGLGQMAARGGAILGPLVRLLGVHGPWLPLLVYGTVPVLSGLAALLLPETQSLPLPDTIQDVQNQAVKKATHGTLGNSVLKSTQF
In words: Inhibition of URAT1 mediated uric acid uptake in MDCKII cells stably expressing human URAT1. The data set is classed as cell-based. Conditions: MDCKII cells expressing human URAT1; 20 μM uric acid probe; read-out: IC50, inhibition of URAT1 mediated uric acid accumulation. The protocol: Uptake experiments were performed using MDCKII cells stably expressing the human URAT1 uptake transporter. Cells were cultured at 37±1° C. in an atmosphere of 95:5 air:CO2 and were plated onto standard 96-well tissue culture plates at the cell number described in Table 1.
Radiolabeled probe substrate transport was determined by measuring an aliquot (35 μL) from each well for liquid scintillation counting.

A short description of data set [4]: In vitro metabolism in human liver microsomes. Conditions: human liver microsomes 0.5 mg/mL, NADPH, 60 minutes, 37° C. The format is in vitro ADME. The method, then: After pre-warming the mixture at 37° C. for 5 minutes, the reaction was initiated by the addition of 1 mM of NADPH and incubated for 60 minutes at 37° C. in a shaking water bath. The reaction was terminated by the addition of 0.5 mL ice-cold acetonitrile. Time 0 incubation was also performed by adding acetonitrile before the addition of microsomes to the incubation mixture as a reference sample for each species. Following vortex and centrifugation at 15,000 g for 3 minutes at room temperature, resulting supernatant was concentrated under nitrogen flow at 33° C., until approximately 0.5 mL of sample remained. The extract was then transferred to a 1.5-mL centrifuge vial for centrifugation at 15,000 g for 3 minutes. Finally, aliquots of the supernatant were transferred to HPLC vials for HPLC-MS analyses.
MS Analysis: Mass spectral analyses were performed on an Agilent single quadruple mass spectrometer equipped with an Agilent 1100 HPLC system. The mass spectrometer was fitted with an electrospray ionization (ESI) source and operated in a negative scan mode between 400 and 500 amu: […]
On the technique in general: Liver microsomes are a subcellular fraction often used to study metabolism.

[5] abbreviates: once daily, Compound 1 50 mg, febuxostat 40 mg, allopurinol 300 mg.
The mark [6] stands for this setting: gout patients, once daily, Compound 1 50 mg, febuxostat 40 mg, allopurinol 300 mg, alone (Day 7/Day 21) or combined.

Data on four molecules can be found in patent US20230218563A1, “METHODS FOR TREATING OR PREVENTING CHRONIC KIDNEY DISEASE” (Arthrosi Therapeutics, Inc., priority 2020, published 2023).

Molecules are shown by their SMILES.

On to `Oc1ncnc2[nH]ncc12` [allopurinol], for which, in the data set on serum uric acid (sUA) (setting [5]), the “patients with sUA levels below 5 mg/dL” value was 11% and the “patients with sUA levels below 6 mg/dL” value is 56%. Moreover, the “mean sUA level reached at maximum” value in the data set with serum uric acid (sUA) (setting [6]) is recorded as 5.8 mg/dL. In addition, the “sUA % change from baseline” value in the data set on serum uric acid (sUA) (one subject with albuminuria, sequential 7-day periods: Compound 1 50 mg (Day 7), Compound 1 50 mg/allopurinol 300 mg (Day 14), allopurinol 300 mg (Day 21)) is −40%. Also, in data set [1], the UACR is on record as 55 mg/g and the “UACR % change from baseline” value was −42.6%.
For `Cc1nc(-c2ccc(OCC(C)C)c(C#N)c2)sc1C(=O)O` [febuxostat], in the data set with serum uric acid (sUA) (setting [5]), the “patients with sUA levels below 5 mg/dL” value came out at 33% and the “patients with sUA levels below 6 mg/dL” value is 67%. Besides, in the data set with serum uric acid (sUA) (setting [6]), the “mean sUA level reached at maximum” value worked out at 5.5 mg/dL and the “reduction of mean sUA from baseline” value amounted to 38.9%.
For orientation: IC50 means the midpoint of a concentration-inhibition curve. Take `[2H]c1c(O)c([2H])c2oc(C(C)O)c(C(=O)c3cc(Br)c(O)c(Br)c3)c2c1[2H]` (centres unmarked) [Compound 2, (3,5-dibromo-4-hydroxyphenyl)(6-hydroxy-2-(1-hydroxyethyl)benzofuran-3-yl-4,5,7-d3)methanone]: the “solubility in HBSS buffer” value in data set [2] is “soluble”. The IC50 in data set [3] was found to be 913 nM.
On to `CCc1oc2ccccc2c1C(=O)c1cc(Br)c(O)c(Br)c1` [benzbromarone, reference compound], for which the “solubility in HBSS buffer” value in data set [2] is reported as “soluble”. Further, the “Parent, % MS response (parent left)” value in data set [4] came out at 13.1%.
